From patent US20240425805A1, “CELL CULTURE METHODS” (INTERNATIONAL N&H DENMARK APS, priority 2021, published 2024)

Assays:
Bifidobacterium animalis [1] = experiment: Growth of B. animalis in MRS media, OD600 plate reader; type: cell-based; details: 24 hrs
Experimental: MRS media was inoculated with 1% overnight grown culture of Bifidobacterium animalis. Cells were grown with the addition of 5 mM ATP (Sigma) or 100 nM potato apyrase (ATPase; Sigma catalog #A6535). Experiments were performed in volumes of 200 μl per well in standard microtiter plates. Growth was assessed via Synergy HTX multi-mode plate reader (Bio Tek Instruments) at OD600 every 30 minutes for 24 hrs. Each plate was incubated at 37° C. and shaken once every 30 mins just before the reading.
MRS media was inoculated with 1% over night grown culture of B. animalis. Cells were grown with 100 nM potato apyrase (ATPase) or heat-treated (95° C. for 10 mins) 100 nM potato apyrase. Experiments were performed in volumes of 200 μl per well in standard microtiter plates. Growth was assessed via plate reader at OD600 every 30 minutes.

Oscillibacter sp = experiment: Effect of ATP and ATPase on growth (OD600), Table 1; type: cell-based; details: YCFAC media; 5 mM ATP; 37° C. anaerobically, 48 hours
Experimental: (§1) Different growth media were inoculated with 1% over night grown culture of various bacterial and yeast species (as detailed in Table 1). Cells were grown in the presence of 5 mM exogenously-added ATP or 100 nM potato apyrase or bovine alkaline phosphatase (ATPase). Experiments were done in volumes of 200 μl per well in standard microtiter plates. Growth was assessed via plate reader at OD600 every 30 minutes for 48 hours. All the experiments were done at 37° C. anaerobically except for yeast strain Kazachstania unispora where cells were grown aerobically at 28° C.

Bifidobacterium Infantis = experiment: as above; type: cell-based; details: MRS media; 5 mM ATP; 37° C. anaerobically, 48 hours
Experimental: as §1

Lactobacillus crispatus = experiment: as above; type: cell-based; details: MRS media; 5 mM ATP; 37° C. anaerobically, 48 hours
Experimental: as §1

Bifidobacterium animalis [2] = experiment: as above; type: cell-based; details: MRS media; 5 mM ATP; 37° C. anaerobically, 48 hours
Experimental: as §1

[3] = system: Bacillus amyloliquefaciens; experiment: as above; type: cell-based; details: TSA media; 5 mM ATP; 37° C. anaerobically, 48 hours
Experimental: as §1

Akkermansia sp = experiment: as above; type: cell-based; details: YCFAC + Mucin media; 5 mM ATP; 37° C. anaerobically, 48 hours
Experimental: as §1

Kazachstania unispora = experiment: as above; type: cell-based; details: YM media; 5 mM ATP; aerobically at 28° C., 48 hours
Experimental: as §1

Prevotella copri = experiment: as above; type: cell-based; details: TSA media; 5 mM ATP; 37° C. anaerobically, 48 hours
Experimental: as §1

Lactobacillus rhamnosus = experiment: as above; type: cell-based; details: 5 mM ATP, 37° C. anaerobically, 48 hours
Experimental: as §1

Bifidobacterium longum = experiment: as above; type: cell-based; details: BHI media; 5 mM ATP; 37° C. anaerobically, 48 hours
Experimental: as §1

Bifidobacterium lactis = experiment: as above; type: cell-based; details: MRS media; 5 mM ATP; 37° C. anaerobically, 48 hours
Experimental: as §1

CHO wild-type cell line = experiment: CHO cell growth in suspension, trypan blue cell count; type: cell-based, Chinese hamster; details: for increase in CHO cell numbers: 10 nM ATPase, after 60 hrs of growth in suspension
Text: (§2) The growth effect of exogenously added ATPase enzymes was examined on established mammalian (Chinese hamster ovary (CHO)) cell lines. CHO wild-type cell line was purchased from Creative Biogene (NY, USA) Cat No. CSC-C3064, and CHO cell line constitutively expressing Green Fluorescent Protein (CHO-GFP) was purchased from GenTarget, Inc (San Diego, CA, USA) Cat No. SC039-Puro. Wild type CHO cell line was maintained in CD OptiCHO™ (ThermoFisher) medium for growth in suspension. GFP expressing CHO cell line was maintained in RPMI 1640 media (ThermoFisher) for adherent growth. Cell lines were cultured in a humidified incubation chamber at 37° C. with 5% CO2.
To measure the effect on CHO cells in suspension, cultures were seeded onto the wells of 6-well plates at 1×10^4 cells per well and incubated for 12 hours. Subsequently, ATPase (potato apyrase or bacterial enzyme CRC22110 (SEQ ID NO:1)) were added to the wells at 10 nM final concentration and incubated for an additional 48 hours. The potato apyrase (Cat No. A6410) and, was sourced from Sigma. The recombinant CRC22110 (SEQ ID NO: 1) enzyme was purified from Bacillus cultures using chromatography methods known in the art. After a total of 60 hours in culture, cells were detached by trypsin treatment, stained with trypan blue and counted in a Countess 3 FL system (Invitrogen). Data on FIG. 4 show the effect of ATPase on CHO cell growth.

CHO-GFP cell line = experiment: GFP expression of CHO-GFP cell line in adherent culture, fluorescence imaging; type: cell-based, Chinese hamster; details: 10 nM ATPase; imaged after 60 hrs
Text: as §2
To study the effect of exogenous ATPase on recombinant protein expression by mammalian cells, the CHO-GFP cell line was used. CHO-GFP cells were seeded onto the wells of 6-well plates at 1×10^4 cells per well and incubated for 12 hours. Subsequently, ATPase (potato Apyrase or bacterial enzyme CRC22110) were added to the wells at 10 nM final concentration and cells were incubated for an additional 48 hours For GFP expression visualization, cells were imaged after 60 hrs of incubation with ATPase by using Invitrogen™ EVOS™ FL Imaging System. […] The number of cells displaying fluorescence signal and the amount of fluorescence are both increased in the cultures grown with exogenous ATPases, potato apyrase or CRC22110.

[4] = system: B. animalis subsp. lactis 420; experiment: eATP in culture supernatants, Luciferase Reporter Assay; type: cell-based; details: 100 nM potato apyrase; MRS, 37° C. anaerobic; 0, 7 and 13 hr
Experimental: MRS media was inoculated with 1% overnight grown culture of B. animalis subsp. lactis 420. Cells were grown at 37° C. under anaerobic conditions with and without potato apyrase. Potato apyrase was used at 100 nM. 200 μl of the sample was collected at different time points. Cells were harvested by centrifugation at 5000 rpm for 5 mins. Supernatants were used to estimate nanomolar ATP using a Luciferase® Reporter Assay System (Promega).
ATP measurements were performed on supernatants collected at 0, 7 and 13 hr time points.

`Nc1ncnc2c1ncn2[C@@H]1O[C@H](COP(=O)(O)OP(=O)(O)OP(=O)(O)O)[C@@H](O)[C@H]1O` [ATP, Adenosine triphosphate] was tested, and the “cellular growth (OD600)” value (Bifidobacterium animalis [1]; 5 mM exogenously added ATP, 37° C.) was “supressed”, the “Sensitivity to ATP” value (Oscillibacter sp) was “YES” and the “Sensitivity to ATP” value (Bifidobacterium Infantis) was “YES”. For the same molecule, the “Sensitivity to ATP” value (Lactobacillus crispatus) was “YES”, the “Sensitivity to ATP” value (Bifidobacterium animalis [2]) was “YES” and the “Sensitivity to ATP” value [3] was “YES”. For the same molecule, the “Sensitivity to ATP” value (Akkermansia sp) was “YES”, the “Sensitivity to ATP” value (Kazachstania unispora) was “YES” and the “Sensitivity to ATP” value (Prevotella copri) was “YES”. For the same molecule, the “Sensitivity to ATP” value (Lactobacillus rhamnosus; BHI media) was “YES”, the “Sensitivity to ATP” value (Lactobacillus rhamnosus; MRS media) was “YES” and the “Sensitivity to ATP” value (Bifidobacterium longum) was “YES”. The “Sensitivity to ATP” value (Bifidobacterium lactis) was “YES”.

B1: CRC22110: recombinant bacterial enzyme CRC22110 (SEQ ID NO:1), Gallaecimonas xiamenensis 3-C-1, purified from Bacillus cultures (protein, listed as Gallaecimonas xiamenensis)
chain: ADKPACRAVFDAGSSGTRLFLYVQQEGGWQPWPGAKLGALADPVRQHQGPKAMAALAADLANSLEALRQDGPTNSEGQPRWQGFDWQQACRLQSVSVLATAGMRLAEQQDPVASVALWQEVQQALAGLLGPAVAIDARTLTGFEEGFYAWLAARARLGRSDMGIVEMGGASSQVAFPCPACDRADDAVQQVRLEGQTLDFYSYSFLGLGQDEAPKVLGVPHACRYGAGVKDPNWQLGQCQAQLPLTLGRALKDPYNFQGQGQGGYRQVPTEKAGVKDWLLTGAFQYNTPDQLDSCCLNQGQCYQPSTACFRVAYLPLYLDSLGVDPHSPDLDVSWTLGAVLCRNEQCLAPSKPPCRWRKAGCLAPSVGDGRPEGRPGQQPGGVQHRQH
For B1, the “increase in CHO cell numbers” value (CHO wild-type cell line) was 3 fold, the “amount of fluorescence (GFP)” value (CHO-GFP cell line) was “increased” and the “number of cells displaying fluorescence signal (GFP)” value (CHO-GFP cell line) was “increased”.

B2: potato apyrase: potato apyrase (ATPase; Sigma), EC 3.6.1.5; SEQ ID NO: 3, predicted mature SEQ ID NO: 4 (protein, listed as Solanum tuberosum)
chain: KNVNAQIPLRRHLLSHESEHYAVIFDAGSTGSRVHVFRFDEKLGLLPIGNNIEYFMATEPGLSSYAEDPKAAANSLEPLLDGAEGVVPQELQSETPLELGATAGLRMLKGDAAEKILQAVRNLVKNQSTFHSKDQWVTILDGTQEGSYMWAAINYLLGNLGKDYKSTTATIDLGGGSVQMAYAISNEQFAKAPQNEDGEPYVQQKHLMSKDYNLYVHSYLNYGQLAGRAEIFKASRNESNPCALEGCDGYYSYGGVDYKVKAPKKGSSWKRCRRLTRHALKINAKCNIEECTFNGVWNGGGGDGQKNIHASSFFYDIGAQVGIVDTKFPSALAKPIQYLNAAKVACQTNVADIKSIFPKTQDRNIPYLCMDLIYEYTLLVDGFGLNPHKEITVIHDVQYKNYLVGAAWPLGCAIDLVSSTTNKIRVASS
With B2 the “increase in CHO cell numbers” value (CHO wild-type cell line) was 3 fold, the “number of viable cells in culture (trypan blue exclusion)” value (CHO wild-type cell line; 10 nM potato apyrase, 60 hours in culture) was “improves the number of viable cells in culture” and the “ATP accumulation in culture supernatant” value [4] was “did not exhibit ATP accumulation”. The “nanomolar ATP over time in culture supernatant” value [4] was “decrease”, the “growth (OD600) versus cells-only control” value (Bifidobacterium animalis [1]; 100 nM potato apyrase alone) was “grew better than the cells-only control” and the “growth (OD600) in the presence of exogenously-added ATP” value (Bifidobacterium animalis [1]; 100 nM potato apyrase plus 5 mM ATP) was “negated the growth inhibitory effect of exogenously-added ATP”. For the same molecule, the “amount of fluorescence (GFP)” value (CHO-GFP cell line) was “increased” and the “number of cells displaying fluorescence signal (GFP)” value (CHO-GFP cell line) was “increased”.
